# Values quoted from earlier work, collected in patent publication US20260256672A1, “COMPOSITION COMPRISING SKIN CARE ACTIVE INGREDIENT OR CELLULOSE COMPOUND” (L'OREAL, priority 2022, published 2026).
# Conditions: base-ten logarithm of apparent octan-1-ol/water partition coefficient
smiles,measurement,value
O=C1O[C@H]([C@@H](O)CO)C(O)=C1O[C@H]1O[C@H](CO)[C@@H](O)[C@H](O)[C@H]1O [Ascorbyl Glucoside],Log P,−3.4
"CC(O)C[C@H]1OC[C@@H](O)[C@H](O)[C@H]1O (stereo partly drawn) [Hydroxypropyl Tetrahydropyrantriol, C-beta-D-xylopyranoside-2-hydroxpropane]",Log P,−1.5
NC(=O)c1cccnc1 [Niacinamide],Log P,−0.37
NC[C@H]1CC[C@H](C(=O)O)CC1 [Tranexamic Acid],Log P,−1.6
